Read-outs that look alike come from different tables or passages of the source.
What was measured:
[1] = test system: phosphorylation of pRb at the Ser780 site in JeKo-1 mantle cell lymphoma cells; experiment: CDK4 cellular assay: ELISA of pRb phosphorylation at Ser780 in JeKo-1 cells; assay type: cell-based
CDK1/cyclin B = CDK1/cyclin B (Homo sapiens (Human), UniProt P06493); experiment: CDK1/cyclin B enzymatic activity assay (IMAP-FP); assay type: biochemical; conditions: […] CDK1/cyclin B, 100 nM Tamra Histone-H1 peptide, 20 μM ATP, 120 min at room temperature; read-out: Biochemical CDK1 enzyme IC50
Chain of CDK1/cyclin B (P06493 whole entry, species assumed): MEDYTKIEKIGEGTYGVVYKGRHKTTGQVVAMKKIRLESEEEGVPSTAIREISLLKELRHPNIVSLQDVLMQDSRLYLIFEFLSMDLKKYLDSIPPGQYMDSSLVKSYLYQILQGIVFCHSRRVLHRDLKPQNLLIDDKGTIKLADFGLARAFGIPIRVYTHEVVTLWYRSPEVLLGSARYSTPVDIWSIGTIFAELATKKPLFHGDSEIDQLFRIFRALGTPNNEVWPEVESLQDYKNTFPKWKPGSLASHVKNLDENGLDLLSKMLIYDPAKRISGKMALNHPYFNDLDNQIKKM
Chain of CDK1/cyclin B (P14635 whole entry partner, species assumed): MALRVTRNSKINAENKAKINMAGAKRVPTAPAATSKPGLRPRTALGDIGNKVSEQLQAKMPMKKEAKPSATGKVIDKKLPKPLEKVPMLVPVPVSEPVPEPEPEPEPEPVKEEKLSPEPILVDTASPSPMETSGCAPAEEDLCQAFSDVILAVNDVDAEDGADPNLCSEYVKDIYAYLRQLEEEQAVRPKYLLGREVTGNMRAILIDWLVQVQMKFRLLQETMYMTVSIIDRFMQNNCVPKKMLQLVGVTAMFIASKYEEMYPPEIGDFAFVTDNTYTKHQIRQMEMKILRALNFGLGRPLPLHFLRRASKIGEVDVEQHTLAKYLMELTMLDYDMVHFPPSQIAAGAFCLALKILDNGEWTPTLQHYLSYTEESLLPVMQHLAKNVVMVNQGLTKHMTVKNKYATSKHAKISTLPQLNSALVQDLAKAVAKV
Source text: CDK1/Cyclin B Enzymatic Activity Assay
A 384-well microtiter IMAP-FP™ (Molecular Devices Trade Mark Technology) endpoint assay was used for CDK1/cyclin B kinase activity measurements. The same assay was used for IC50 determination of small molecule inhibitors.

CDK4/cyclin D1 = CDK4/cyclin D1 (Homo sapiens (Human), UniProt P11802); experiment: CDK4/cyclin D1 enzymatic activity assay (TR-FRET, phosphorylation of pRb at Ser780); assay type: biochemical
Chain of CDK4/cyclin D1 (P11802 whole entry): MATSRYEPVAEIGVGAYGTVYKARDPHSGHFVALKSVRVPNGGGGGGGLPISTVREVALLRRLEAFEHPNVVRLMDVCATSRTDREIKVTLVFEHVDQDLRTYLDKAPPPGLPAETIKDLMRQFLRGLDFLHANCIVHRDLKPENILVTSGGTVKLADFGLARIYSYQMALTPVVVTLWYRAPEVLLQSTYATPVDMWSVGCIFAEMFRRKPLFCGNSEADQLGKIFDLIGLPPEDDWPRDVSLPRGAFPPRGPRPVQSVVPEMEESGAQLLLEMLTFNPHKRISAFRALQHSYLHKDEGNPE
Chain of CDK4/cyclin D1 (P24385 whole entry partner): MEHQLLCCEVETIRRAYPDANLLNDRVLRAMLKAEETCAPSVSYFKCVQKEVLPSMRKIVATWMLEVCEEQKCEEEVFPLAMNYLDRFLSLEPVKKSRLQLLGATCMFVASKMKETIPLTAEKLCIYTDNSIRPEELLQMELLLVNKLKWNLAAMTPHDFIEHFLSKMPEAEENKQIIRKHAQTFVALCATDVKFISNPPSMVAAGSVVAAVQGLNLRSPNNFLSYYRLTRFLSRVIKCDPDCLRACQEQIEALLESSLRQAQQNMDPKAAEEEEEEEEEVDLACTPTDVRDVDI
Outline: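 Phosphorylation at pRb Ser780, detected by TR-FRET, gave IC50s and kinetics. Enzyme: baculovirus/Sf21-expressed human CDK4/cyclin D1. ATP at 3 μM initiated the reaction; EDTA (pH 8.0) stopped it after 60 min at 22° C.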

[2] = Homo sapiens, JeKo-1 cells, p-pRb % inhibition adjusted with total pRb levels, read-out: Normalized cellular ppRb inhibition IC50
[3] = Homo sapiens, JeKo-1 cells, p-pRb Ser780 ELISA, non-normalized, read-out: Cellular ppRb inhibition IC50
[4] = 0.3 nM CDK4/cyclin D1, 150 nM biotin-pRb (773-924), 3 μM ATP, 60 min at 22° C., read-out: Biochemical CDK4 enzyme IC50
[5] = JeKo-1 cells, p-pRb % inhibition adjusted with total pRb levels, read-out: Normalized cellular ppRb inhibition IC50
[6] = JeKo-1 cells, p-pRb Ser780 ELISA, non-normalized, read-out: Cellular ppRb inhibition IC50
[7] = Homo sapiens, JeKo-1, JeKo-1 cells, p-pRb % inhibition adjusted with total pRb levels, read-out: Normalized cellular ppRb inhibition IC50
[8] = Homo sapiens, JeKo-1, JeKo-1 cells, p-pRb Ser780 ELISA, non-normalized, read-out: Cellular ppRb inhibition IC50

Structure (SMILES) | IC50 [1, 2] [nM] | IC50 [1, 3] [nM] | IC50 (CDK1/cyclin B) [nM] | IC50 (CDK4/cyclin D1; [4]) [nM] | IC50 [1, 5] [nM] | IC50 [1, 6] [nM] | IC50 (CDK4/cyclin D1) [nM] | IC50 [1, 7] [nM] | IC50 [1, 8] [nM]
CN(C)C(=O)c1cc2cnc(Nc3ccc(N4CCC5(CCCN5)C4=O)cn3)nc2n1C1CCCOC1 (stereo not shown) [Example 121, N,N-dimethyl-2-(5-(6-oxo-1,7-diazaspiro[4.4]nonan-7-yl)pyridin-2-ylamino)-7-(tetrahydro-2H-pyran-3-yl)-7H-pyrrolo[2,3-d]pyrimidine-6-carboxamide] | 199 to 791 | 184 to 489 | > 15000 | 79 to 107 | – | – | – | – | –
CN(C)C(=O)c1cc2cnc(Nc3ccc(N4CC5CCC(CC4=O)N5)cn3)nc2n1C1CCCC1 (stereo not shown) [Example 122, 7-Cyclopentyl-2-[5-(4-oxo-3,9-diaza-bicyclo[4.2.1]non-3-yl)-pyridin-2-ylamino]-7H-pyrrolo[2,3-d]pyrimidine-6-carboxylic acid dimethylamide] | – | – | > 15000 | – | 14 | 9 | 5 to 10 | – | –
CN(C)C(=O)c1cc2cnc(Nc3ccc(N4C[C@H]5CC[C@@H](CC4=O)N5)cn3)nc2n1C1CCCC1 [Example 123, 7-Cyclopentyl-2-[5-((1R,6S)-4-oxo-3,9-diaza-bicyclo[4.2.1]non-3-yl)-pyridin-2-ylamino]-7H-pyrrolo[2,3-d]pyrimidine-6-carboxylic acid dimethylamide] | – | – | 29300 | 3 | – | – | – | 8 to 99 | 5 to 16
CN(C)C(=O)c1cc2cnc(Nc3ccc(N4C[C@@H]5CC[C@H](CC4=O)N5)cn3)nc2n1C1CCCC1 [Example 124, 7-Cyclopentyl-2-[5-((1S,6R)-4-oxo-3,9-diaza-bicyclo[4.2.1]non-3-yl)-pyridin-2-ylamino]-7H-pyrrolo[2,3-d]pyrimidine-6-carboxylic acid dimethylamide] | – | – | > 15000 | 23 | 261 | 158 | – | – | –
CNC(=O)c1cc2cnc(Nc3ccc(N4C[C@H]5CC[C@@H](CC4=O)N5C)cn3)nc2n1C1CCCC1 [Example 125, 7-cyclopentyl-2-[5-((1R,6S)-9-methyl-4-oxo-3,9-diaza-bicyclo[4.2.1]non-3-yl)-pyridin-2-ylamino]-7H-pyrrolo[2,3-c]pyrimidine-6-carboxylic acid methylamide] | 161 | 83 | > 15000 | 15 | – | – | – | – | –
CN(C)C(=O)c1cc2cnc(Nc3ccc(N4CC5CCC(C4)N5)nn3)nc2n1C1CCCCC1 [Example 126, 7-Cyclohexyl-2-[6-(3,8-diaza-bicyclo[3.2.1]oct-3-yl)-pyridazin-3-ylamino]-7H-pyrrolo[2,3-d]pyrimidine-6-carboxylic acid dimethylamide] | – | – | > 15000 | 10 to 31 | – | – | – | 45 to 49 | 23 to 32
CN(C)C(=O)c1cc2cnc(Nc3ccc(N4CC5CCC(CC4=O)N5)cn3)nc2n1-c1ccccc1 (stereo not shown) [Example 128, 2-[5-(4-oxo-3,9-diaza-bicyclo[4.2.1]non-3-yl)-pyridin-2-ylamino]-7-phenyl-7H-pyrrolo[2,3-d]pyrimidine-6-carboxylic acid dimethylamide] | – | – | > 15000 | 9 | – | – | – | 140 | 81
CN(C)C(=O)c1cc2cnc(Nc3ccc(N4C[C@@H]5CC[C@H](CC4=O)N5)cn3)nc2n1-c1ccccc1 [Example 129, 2-[5-((1S,6R)-4-Oxo-3,9-diaza-bicyclo[4.2.1]non-3-yl)-pyridin-2-ylamino]-7-phenyl-7H-pyrrolo[2,3-d]pyrimidine-6-carboxylic acid dimethylamide] | – | – | > 15000 | 48 | – | – | – | 221 | 194
CN(C)C(=O)c1cc2cnc(Nc3ccc(N4C[C@H]5CC[C@@H](CC4=O)N5)cn3)nc2n1-c1ccccc1 [Example 130, 2-[5-((1R,6S)-4-oxo-3,9-diaza-bicyclo[4.2.1]non-3-yl)-pyridin-2-ylamino]-7-phenyl-7H-pyrrolo[2,3-d]pyrimidine-6-carboxylic acid dimethylamide] | – | – | > 15000 | 9 | – | – | – | 22 to 45 | 19 to 26
CN(C)C(=O)c1cc2cnc(Nc3ccc(N4CC5CCC(CC4=O)N5)cn3)nc2n1C1CCCCC1 (stereo not shown) [Example 131, 7-cyclohexyl-N,N-dimethyl-2-(5-(4-oxo-3,9-diazabicyclo[4.2.1]nonan-3-yl)pyridin-2-ylamino)-7H-pyrrolo[2,3-d]pyrimidine-6-carboxamide] | – | – | > 15000 | 4 | – | – | – | 24 | 14
CN(C)C(=O)c1cc2cnc(Nc3ccc(N4C[C@@H]5CC[C@H](CC4=O)N5)cn3)nc2n1C1CCCCC1 [Example 132, 7-Cyclohexyl-2-[5-((1S,6R)-4-oxo-3,9-diaza-bicyclo[4.2.1]non-3-yl)-pyridin-2-ylamino]-7H-pyrrolo[2,3-d]pyrimidine-6-carboxylic acid dimethylamide] | – | – | > 15000 | 19 | – | – | – | 28 to 47 | 21 to 50
CN(C)C(=O)c1cc2cnc(Nc3ccc(N4C[C@H]5CC[C@@H](CC4=O)N5)cn3)nc2n1C1CCCCC1 [Example 133, 7-Cyclohexyl-2-[5-((1R,6S)-4-oxo-3,9-diaza-bicyclo[4.2.1]non-3-yl)-pyridin-2-ylamino]-7H-pyrrolo[2,3-d]pyrimidine-6-carboxylic acid dimethylamide] | – | – | 13300 | < 5 | – | – | – | 7 | 5
CN(C)C(=O)c1cc2cnc(Nc3ccc(N4CC5CCC(CC4=O)N5)cn3)nc2n1C1CCC1 (stereo not shown) [Example 134, 7-Cyclobutyl-2-[5-(4-oxo-3,9-diaza-bicyclo[4.2.1]non-3-yl)-pyridin-2-ylamino]-7H-pyrrolo[2,3-d]pyrimidine-6-carboxylic acid dimethylamide] | – | – | > 15000 | 8 | – | – | – | 123 | 66
CN(C)C(=O)c1cc2cnc(Nc3ccc(N4C[C@@H]5CC[C@H](CC4=O)N5)cn3)nc2n1C1CCC1 [Example 135, 7-Cyclobutyl-2-[5-((1S,6R)-4-oxo-3,9-diaza-bicyclo[4.2.1]non-3-yl)-pyridin-2-ylamino]-7H-pyrrolo[2,3-d]pyrimidine-6-carboxylic acid dimethylamide] | – | – | > 15000 | 7 | – | – | – | 38 | 19
CN(C)C(=O)c1cc2cnc(Nc3ccc(N4C[C@H]5CC[C@@H](CC4=O)N5)cn3)nc2n1C1CCC1 [Example 136, 7-Cyclobutyl-2-[5-((1R,6S)-4-oxo-3,9-diaza-bicyclo[4.2.1]non-3-yl)-pyridin-2-ylamino]-7H-pyrrolo[2,3-d]pyrimidine-6-carboxylic acid dimethylamide] | – | – | > 15000 | 54 | – | – | – | 218 | 77
CN(C)C(=O)c1cc2cnc(Nc3ccc(N4C[C@@H]5CC[C@H](CC4=O)N5S(C)(=O)=O)cn3)nc2n1C1CCCC1 [Example 137, 7-cyclopentyl-N,N-dimethyl-2-(5-((1S,6R)-9-(methylsulfonyl)-4-oxo-3,9-diazabicyclo[4.2.1]nonan-3-yl)pyridin-2-ylamino)-7H-pyrrolo[2,3-d]pyrimidine-6-carboxamide] | 150 | 155 | > 15000 | 62 | – | – | – | – | –

— patent US8957074B2 (Novartis AG, priority 2010, dated 2015)
